As a reminder, the Ki is the equilibrium dissociation constant of an inhibitor or competing ligand from its target.

The results in this text go back to patent US8138189B2, “Substituted benzene compounds as modulators of the glucocorticoid receptor” (Hoffman-La Roche Inc., priority 2009, dated 2012).

This experiment concerns the target T1, full length human recombinant glucocorticoid receptor (Homo sapiens, UniProt P04150).
T1 construct: partially purified full length human recombinant glucocorticoid receptor; purchased Panvera/Invitrogen PV4302
T1 sequence (P04150 1-777): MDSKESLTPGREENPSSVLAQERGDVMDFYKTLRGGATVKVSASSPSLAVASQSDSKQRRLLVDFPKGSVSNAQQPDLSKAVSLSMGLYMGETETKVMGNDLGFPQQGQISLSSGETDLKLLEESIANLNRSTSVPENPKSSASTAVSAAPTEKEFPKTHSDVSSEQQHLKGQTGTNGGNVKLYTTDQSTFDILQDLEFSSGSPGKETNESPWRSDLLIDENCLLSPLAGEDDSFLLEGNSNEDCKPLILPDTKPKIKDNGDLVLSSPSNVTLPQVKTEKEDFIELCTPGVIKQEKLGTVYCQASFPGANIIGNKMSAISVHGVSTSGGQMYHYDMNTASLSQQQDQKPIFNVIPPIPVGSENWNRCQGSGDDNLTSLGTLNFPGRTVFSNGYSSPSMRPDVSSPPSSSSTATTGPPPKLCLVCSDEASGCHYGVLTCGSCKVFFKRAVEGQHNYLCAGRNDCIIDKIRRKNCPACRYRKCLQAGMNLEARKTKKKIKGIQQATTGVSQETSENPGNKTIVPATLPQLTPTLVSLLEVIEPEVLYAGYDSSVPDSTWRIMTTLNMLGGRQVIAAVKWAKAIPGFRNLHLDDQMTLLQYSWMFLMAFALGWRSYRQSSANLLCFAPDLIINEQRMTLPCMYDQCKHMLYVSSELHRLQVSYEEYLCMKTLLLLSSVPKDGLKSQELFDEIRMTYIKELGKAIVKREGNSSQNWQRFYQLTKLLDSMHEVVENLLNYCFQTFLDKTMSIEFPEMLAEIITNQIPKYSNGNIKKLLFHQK
The experiment is described as follows: Glucocorticoid Receptor Binding Assay (fluorescence polarization competitor assay, Fluormone GS Far Red tracer). The essentials:
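Partially purified full-length recombinant human GR with a stabilizing coactivator peptide was incubated with Fluormone GS Far Red tracer and serially diluted compound for 3 h at 22 °C in the dark, pH 7.4. Fluorescence polarization was read at 610-660 nm. IC50 came from sigmoidal fitting, and Ki from Cheng-Prusoff.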
For orientation: In fluorescence polarisation assays a small probe gives low polarisation when free and higher when bound to something large.
Turning to `Cc1cc(C(O)(C(C)c2ccc(OCc3ccnc(C(=O)O)c3)cc2Cl)C(F)(F)F)ccn1` (centres unmarked) [Example 102, 4-{3-Chloro-4-[3,3,3-trifluoro-2-hydroxy-1-methyl-2-(2-methyl-pyridin-4-yl)-propyl]-phenoxymethyl}-pyridine-2-carboxylic acid], the Ki worked out at 20.2 nM.
With `COC(=O)c1ccc(Oc2ccc(C(C)C(O)(c3ccnc(C)c3)C(F)(F)F)c(Cl)c2)nn1` (centres unmarked) [Example 104, 6-{3-Chloro-4-[3,3,3-trifluoro-2-hydroxy-1-methyl-2-(2-methyl-pyridin-4-yl)-propyl]-phenoxy}-pyridazine-3-carboxylic acid methyl ester] the figure was 87.4 nM; with `Cc1cc(C(O)(C(C)c2ccc(Oc3ccc(C(=O)O)nn3)cc2Cl)C(F)(F)F)ccn1` (centres unmarked) [Example 105, 6-{3-Chloro-4-[3,3,3-trifluoro-2-hydroxy-1-methyl-2-(2-methyl-pyridin-4-yl)-propyl]-phenoxy}-pyridazine-3-carboxylic acid], 361 nM; with `CCOC(=O)c1ccc(COc2ccc(C(C)C(O)(c3ccncc3)C(F)(F)F)c(Cl)c2)cc1` (centres unmarked) [Example 106, 4-[3-Chloro-4-(3,3,3-trifluoro-2-hydroxy-1-methyl-2-pyridin-4-yl-propyl)-phenoxymethyl]-benzoic acid ethyl ester], 47.1 nM.
Next, `CC(c1ccc(OCc2ccc(C(=O)O)cc2)cc1Cl)C(O)(c1ccncc1)C(F)(F)F` (centres unmarked) [Example 107, 4-[3-Chloro-4-(3,3,3-trifluoro-2-hydroxy-1-methyl-2-pyridin-4-yl-propyl)-phenoxymethyl]-benzoic acid]: 30.8 nM.
As for `COc1cc(C(=O)O)ccc1COc1ccc(C(C)C(O)(c2ccncc2)C(F)(F)F)c(Cl)c1` (centres unmarked) [Example 109, 4-[3-Chloro-4-(3,3,3-trifluoro-2-hydroxy-1-methyl-2-pyridin-4-yl-propyl)-phenoxymethyl]-3-methoxy-benzoic acid], the inhibition constant (Ki) was 79.2 nM.
Next, `COC(=O)c1ccc(COc2ccc(C(C)C(O)(c3ccnc(Cl)c3)C(F)(F)F)c(Cl)c2)nc1` (centres unmarked) [Example 110, 6-{3-Chloro-4-[2-(2-chloro-pyridin-4-yl)-3,3,3-trifluoro-2-hydroxy-1-methyl-propyl]-phenoxymethyl}-nicotinic acid methyl ester]: 6.4 nM; `CC(c1ccc(OCc2ccc(C(=O)O)cn2)cc1Cl)C(O)(c1ccnc(Cl)c1)C(F)(F)F` (centres unmarked) [Example 111, 6-{3-Chloro-4-[2-(2-chloro-pyridin-4-yl)-3,3,3-trifluoro-2-hydroxy-1-methyl-propyl]-phenoxymethyl}-nicotinic acid]: 13 nM.
As to `COC(=O)c1cnc(COc2ccc(C(C)C(O)(c3ccnc(Cl)c3)C(F)(F)F)c(Cl)c2)cn1` (centres unmarked) [Example 112, 5-{3-Chloro-4-[2-(2-chloro-pyridin-4-yl)-3,3,3-trifluoro-2-hydroxy-1-methyl-propyl]-phenoxymethyl}-pyrazine-2-carboxylic acid methyl ester], the Ki was 9.2 nM.
For `CC(c1ccc(OCc2cnc(C(=O)O)cn2)cc1Cl)C(O)(c1ccnc(Cl)c1)C(F)(F)F` (centres unmarked) [Example 113, 5-{3-Chloro-4-[2-(2-chloro-pyridin-4-yl)-3,3,3-trifluoro-2-hydroxy-1-methyl-propyl]-phenoxymethyl}-pyrazine-2-carboxylic acid], the Ki turned out to be 13.6 nM.
Next, `COC(=O)c1cnc(Oc2ccc(C(C)C(O)(c3ccnc(Cl)c3)C(F)(F)F)c(Cl)c2)cn1` (centres unmarked) [Example 114, 5-{3-Chloro-4-[2-(2-chloro-pyridin-4-yl)-3,3,3-trifluoro-2-hydroxy-1-methyl-propyl]-phenoxy}-pyrazine-2-carboxylic acid methyl ester]: 24.2 nM; `CC(c1ccc(Oc2cnc(C(=O)O)cn2)cc1Cl)C(O)(c1ccnc(Cl)c1)C(F)(F)F` (centres unmarked) [Example 115, 5-{3-Chloro-4-[2-(2-chloro-pyridin-4-yl)-3,3,3-trifluoro-2-hydroxy-1-methyl-propyl]-phenoxy}-pyrazine-2-carboxylic acid]: 96.8 nM.
Consider `COC(=O)c1cnc(Oc2ccc(C(C)C(O)(c3ccnc(Cl)c3)C(F)(F)F)c(Cl)c2)nc1` (centres unmarked) [Example 116, 2-{3-Chloro-4-[2-(2-chloro-pyridin-4-yl)-3,3,3-trifluoro-2-hydroxy-1-methyl-propyl]-phenoxy}-pyrimidine-5-carboxylic acid methyl ester], for which the Ki came to 40.6 nM.
As for `CC(c1ccc(Oc2ncc(C(=O)O)cn2)cc1Cl)C(O)(c1ccnc(Cl)c1)C(F)(F)F` (centres unmarked) [Example 117, 2-{3-Chloro-4-[2-(2-chloro-pyridin-4-yl)-3,3,3-trifluoro-2-hydroxy-1-methyl-propyl]-phenoxy}-pyrimidine-5-carboxylic acid], the Ki was determined as 111 nM.
Consider `COC(=O)c1ccc(Oc2ccc(C(C)C(O)(c3ccnc(Cl)c3)C(F)(F)F)c(Cl)c2)nc1` (centres unmarked) [Example 118, 6-{3-Chloro-4-[2-(2-chloro-pyridin-4-yl)-3,3,3-trifluoro-2-hydroxy-1-methyl-propyl]-phenoxy}-nicotinic acid methyl ester], for which the Ki was determined as 10.8 nM.
Next, `CC(c1ccc(Oc2ccc(C(=O)O)cn2)cc1Cl)C(O)(c1ccnc(Cl)c1)C(F)(F)F` (centres unmarked) [Example 119, 6-{3-Chloro-4-[2-(2-chloro-pyridin-4-yl)-3,3,3-trifluoro-2-hydroxy-1-methyl-propyl]-phenoxy}-nicotinic acid]: 20.4 nM.
In the case of `COc1cc(C(=O)O)ccc1COc1ccc(C(C)C(O)(c2cnn3ccccc23)C(F)(F)F)c(Cl)c1` (centres unmarked) [Example 129, 4-[3-Chloro-4-(3,3,3-trifluoro-2-hydroxy-1-methyl-2-pyrazolo[1,5-a]pyridin-3-yl-propyl)-phenoxymethyl]-3-methoxy-benzoic acid], the Ki is 267 nM.
Consider `COc1cc(Oc2ccc(Cl)c(C(C)C(O)(c3ccnc(Cl)c3)C(F)(F)F)c2)ccc1C(=O)O` (centres unmarked) [Example 131, 4-{4-Chloro-3-[2-(2-chloro-pyridin-4-yl)-3,3,3-trifluoro-2-hydroxy-1-methyl-propyl]-phenoxy}-2-methoxy-benzoic acid], for which the Ki stood at 437 nM.
With `C[C@H](c1ccc(Oc2ccc(OCC(=O)O)cc2)cc1Cl)[C@@](O)(c1ccc(=O)n(C)c1)C(F)(F)F` [Example 160], the Ki is 1.6 nM.
With `COC(=O)c1ccc(-c2ccc([C@H](C)[C@](O)(c3ccc(=O)n(C)c3)C(F)(F)F)c(Cl)c2)cc1F` [Example 166, 3′-Chloro-3-fluoro-4′-[3,3,3-trifluoro-2-hydroxy-1-methyl-2-(1-methyl-6-oxo-1,6-didydro-pyridin-3-yl)-propyl]-biphenyl-4-carboxylic acid methyl ester] the figure was 6.2 nM; with `C[C@@H](c1ccc(-c2ccc(C(=O)O)c(F)c2)cc1Cl)[C@](O)(c1ccc(=O)n(C)c1)C(F)(F)F` [Example 167, 3′-Chloro-3-fluoro-4′-[3,3,3-trifluoro-2-hydroxy-1-methyl-2-(1-methyl-6-oxo-1,6-dihydro-pyridin-3-yl)-propyl]-propylphiphenyl-4-carboxylic acid], 45.9 nM; with `COC(=O)c1ccc(-c2ccc([C@H](C)[C@](O)(c3ccc(=O)n(C)c3)C(F)(F)F)c(Cl)c2)cc1Cl` [Example 168, 3,3′-Dichloro-4′-[3,3,3-trifluoro-2-hydroxy-1-methyl-2-(1-methyl-6-oxo-1,6-dihydro-pyridin-3-yl)-propyl]-propylphiphenyl-4-carboxylic acid methyl ester], 2.6 nM.
Regarding `Cc1cc([C@](O)([C@H](C)c2ccc(Oc3ccc(C(=O)O)c(Cl)c3)cc2Cl)C(F)(F)F)sc1C#N` [Example 235, 2-Chloro-4-{3-chloro-4-[2-(5-cyano-4-methyl-thiophen-2-yl)-3,3,3-trifluoro-2-hydroxy-1-methyl-propyl]-phenoxy}-benzoic acid], the Ki was found to be 1.8 nM.
On to `Cc1cc([C@@](O)([C@@H](C)c2ccc(Oc3ccc(C(=O)O)cc3Cl)cc2Cl)C(F)(F)F)cn(C)c1=O` [Example 244, 3-Chloro-4-{3-chloro-4-[(1S,2S)-2-(1,5-dimethyl-6-oxo-1,6-dihydro-pyridin-3-yl)-3,3,3-trifluoro-2-hydroxy-1-methyl-propyl]-phenoxy}-benzoic acid], for which the Ki was found to be 601 nM.
`Cc1cc([C@](O)([C@H](C)c2ccc(Oc3ccc(C(=O)O)cc3Cl)cc2Cl)C(F)(F)F)cn(C)c1=O` [Example 245, 3-Chloro-4-{3-chloro-4-[(1R,2R)-2-(1,5-dimethyl-6-oxo-1,6-dihydro-pyridin-3-yl)-3,3,3-trifluoro-2-hydroxy-1-methyl-propyl]-phenoxy}-benzoic acid]: the Ki was 0.4 nM.
Consider `Cc1cc([C@@](O)([C@@H](C)c2ccc(Oc3ccc(C(=O)O)cn3)cc2Cl)C(F)(F)F)cn(C)c1=O` [Example 246, 6-{3-Chloro-4-[(1S,2S)-2-(1,5-dimethyl-6-oxo-1,6-dihydro-pyridin-3-yl)-3,3,3-trifluoro-2-hydroxy-1-methyl-propyl]-phenoxy}-nicotinic acid], for which the inhibition constant Ki amounted to 0.5 nM.
